Assay results: paper PMC9649909, “Wnt-pathway inhibitors with selective activity against triple-negative breast cancer: From thienopyrimidine to quinazoline inhibitors” (Frontiers in Pharmacology, 2022)
Like-named read-outs stand apart in the source and are kept apart here.

How the values were obtained:
[1] = system: MDA-MB-231 TNBC cell line; test: MTT survival assay MDA-MB-231; assay type: cell-based; conditions: for IC50: Homo sapiens, MDA-MB-231
Method: (§1) Indicated TNBC cell lines were detached and resuspended at 120,000 cells/ml and added into each well of a transparent 384-well plate in the final volume of 20 µl/well. The cells were maintained in DMEM containing 10% FBS at 37°C, 5% CO2 overnight. Next day, the medium in each well was replaced by 40 μl of the fresh one containing the indicated concentrations of compounds. In case of drug combination experiments, each compound dilution was delivered in corresponding well in 20 μl of medium. […] After incubation for 3–4 days, depending on the cell line, the medium in each well was replaced by 25 μl of 0.5 mg/ml Thiazolyl blue solution in 1xPBS following by incubation for 3 h at 37°C. Then the solution was removed and 25 μl DMSO was added into each well. Absorbance at 510 nm was measured in a Tecan Infinite M200 PRO plate reader.

HCC1395 cells = test: in vitro
Method: (§2) The simplicity of the scaffold combined with synthetic accessibility allows building a library of compounds and performing structure activity relationship (SAR) studies of the three main parts of the molecule: the top part, the linker and the core (Figure 2).
(§3) The synthesized compounds were used to explore SAR of three defined areas of investigation (Figure 2). All compounds were tested in the HCC1395 TNBC cell line using the GSK3β inhibitor to induce β-catenin signaling since 4a acted downstream of GSK3β (Figure 2). Both inhibition of β-catenin signaling measured by the TopFlash reporter and cytotoxicity measured by the Renilla reporter were assessed.
(§4) The Wnt3a or CHIR99021-stimulated luciferase activity in HCC1395 TNBC cell line stably transfected with the TopFlash reporter was analyzed essentially as described for the BT-20 TNBC cell line ([Shaw et al., 2019b]; [Koval et al., 2021]). Reporter cells were seeded at 10,000 cells/well in a white opaque 384-well plate in the final volume of 20 μl of DMEM medium supplemented with 10% FCS. The cells were maintained incubated at 37°C, 5% CO2 overnight for attachment. Subsequently, they were transfected by a plasmid encoding constitutively expressed Renilla luciferase under the CMV promoter overall as described in the manufacturer’s protocol using 12 μg/ml of DNA and 40 μl/ml XtremeGENE nine reagent. The next day, the medium in each well was replaced with a 10 μl of fresh medium containing compound of interest, and, after 1 h of preincubation with the compounds, additional 10 μl of medium supplemented with Wnt3a [purified as described ([Willert et al., 2003]; [Koval and Katanaev, 2011])] or CHIR99021 were added creating respective final concentrations of 2.5 μg/ml or 5 μM of each. In case of other signal transduction reporters, no additional stimulation was performed. Compound dilutions were prepared by serial dilution in DMSO and diluted with the amount of medium necessary to obtain their final concentrations indicated on the figures and tables and maintain concentration of DMSO of 0.5% in all assay points. After overnight incubation, the supernatant in each well was removed, and the luciferase activity was measured as described ([Dyer et al., 2000]; [Huber et al., 2021]; [Pellissier et al., 2021]). The culture medium was completely removed from all wells of the plate. Finally, the luciferase activity of the firefly and Renilla luciferases was detected sequentially in individual wells of a 384-well plate through injection of corresponding measurement solutions and immediate reading (400 ms integration time) in Infinite M Plex multifunctional plate reader with injection module.

in vitro = conditions: human, HCC1395 Cytotoxicity IC50
Method: as §2, §3, §4

TNBC cell proliferation = test: Loewe synergism with docetaxel in anti-proliferative assay (COMBENEFIT); assay type: cell-based; conditions: Loewe model
Source text: The Wnt-pathway is implicated in chemoresistance to conventional chemotherapies and drives a poor chemotherapy response in a broad range of tumors ([O’Reilly et al., 2015]; [Martin-Orozco et al., 2019]; [Zhong and Virshup, 2020]). To assess how combination with our compounds affects the anti-proliferative capacity of docetaxel—one of the first-line treatments for TNBC ([Mandapati and Lukong, 2022]), we performed the Loewe synergism assessment over a complete dose-response range of both compounds followed by analysis in the COMBENEFIT software in Matlab (Figure 7 and Supplementary Figure S1) ([Di Veroli et al., 2016]).
as §1
The data was visualized analyzed in either GraphPad Prism nine using indicated statistical analysis or in R using gplots package ([Warnes et al., 2009]). Dataset from CCLE ([Barretina et al., 2012]) were used in the study and pathway enrichment analysis was performed by DAVID online tool ([Sherman et al., 2022]). Drug combination data was treated in COMBENEFIT software ([Di Veroli et al., 2016]). Network was built using Cytoscape with StringDB plugin ([Shannon et al., 2003]; [Szklarczyk et al., 2021]).

HCC1806 TNBC cell line = test: MTT survival assay HCC1806; assay type: cell-based; conditions: for IC50: Homo sapiens, HCC1806
Method: as §1

[2] = system: non-cancerous breast epithelial cell line MCF10a; test: MTT survival assay MCF10a; assay type: cell-based; conditions: for IC50: Homo sapiens, MCF-10A
Method: as §1

HCC1395 TNBC cell line = test: MTT survival assay HCC1395; assay type: cell-based; conditions: Homo sapiens, HCC1395
Method: as §1

[3] = system: MDA-MB-468 TNBC cell line; test: MTT survival assay MDA-MB-468; assay type: cell-based; conditions: Homo sapiens, MDA-MB-468; Table S2
Method: as §1

BT-20 TNBC cell line = test: MTT survival assay BT-20; assay type: cell-based; conditions: Homo sapiens, BT-20
Method: as §1

[4] = system: β-catenin-dependent Wnt-pathway; test: TopFlash luciferase reporter assay, CHIR99021-stimulated, HCC1395; assay type: cell-based; conditions: for Emax / IC50: Homo sapiens, HCC1395, HCC1395, stimulation with CHIR99021 (GSK3β inhibitor); for Emax: read-out: HCC1395 TopFlash Efficacy; for IC50: read-out: HCC1395 TopFlash IC50
Source text: Both stimulations abolish formation of the destruction complex, a multiprotein complex consisting of Axin, adenomatous polyposis coli (APC), glycogen synthase kinase three beta (GSK3β), and casein kinase one alpha (CK1α). Upon inactivation of the complex, β-catenin accumulates in the cytoplasm and translocates into the nucleus where it interacts with transcription factors. These downstream events are quantified by a Luciferase transcription-based readout assay (TopFlash assay).

[5] = Table S2, read-out: MTT MDA-MB-231 IC50
[6] = Table S2, read-out: MTT HCC1806 IC50
[7] = Table S2, read-out: MTT MCF10 IC50
[8] = Table S2, read-out: MTT HCC-1395 IC50
[9] = Table S2, read-out: MTT BT-20 IC50
[10] = Figure 3B heatmap, read-out: IC50, μM (MDA-MB-231)
[11] = Figure 3B heatmap, read-out: IC50, μM (MCF10)
[12] = Figure 3B heatmap, read-out: IC50, μM (HCC1806)

SMILES | IC50 [1, 5] [µM] | MTT MDA-MB-231 Comments ([1]; Table S2) | HCC1395 Cytotoxicity Efficacy (HCC1395 cells; human) [%] | IC50 (in vitro) [µM] | effect of co-treatment with docetaxel (TNBC cell proliferation) | IC50 (HCC1806 TNBC cell line; [6]) [µM] | IC50 [2, 7] [µM] | IC50 (HCC1395 TNBC cell line; [8]) [µM] | IC50 [3] [µM] | IC50 (BT-20 TNBC cell line; [9]) [µM] | Emax [4] [%] | IC50 [4] [µM] | MTT HCC1806 Comments (HCC1806 TNBC cell line; Table S2) | IC50 [1, 10] [µM] | GSK HCC1395 Renilla Comments (HCC1395 cells) | MTT MCF10 Comments ([2]; Table S2) | IC50 [2, 11] [µM] | IC50 (HCC1806 TNBC cell line; [12]) [µM] | further results
Cc1ccc(CNc2ncnc3ccccc23)cc1 [Compound 9f, N-(4-methyl)quinazolin-4-amine] | > 10 | Inactive | 100 ± 0 | 8.13 ± 3.8 | exclusively synergistic effects | 23.4 | 9.42 | 1.07 | 0.83 | 6.08 | 51.6 ± 7.9 | 1.22 ± 0.33 | – | – | – | – | – | – | –
Fc1ccc(CNc2ncnc3ccccc23)cc1 [Compound 9d, N-(4-fluoro)quinazolin-4-amine] | > 10 | Inactive | – | > 50 | exclusively synergistic effects | > 10 | 12.5 | 1.15 | 0.8 | 2.92 | 87.1 ± 4.09 | 0.67 ± 0.13 | Inactive | – | – | – | – | – | –
Cc1ccc(C(C)Nc2ncnc3ccccc23)cc1 (stereo not drawn) [Compound 9i, N-(1-(p-tolyl)ethyl)quinazolin-4-amine] | – | – | 38.7 ± 12.8 | 10.3 ± 2.06 | exclusively synergistic effects | – | – | – | – | – | 54.6 ± 2.9 | 1.88 ± 0.28 | – | – | – | – | – | – | –
COc1cccc(CNc2ncnc3sccc23)c1 [Compound 4c, N-(3-methoxybenzyl)thieno[2,3-d]pyrimidin-4-amine] | 9.37 | – | – | > 50 | – | > 50 | > 50 | 1.08 | 1.61 | 2.89 | 58.6 ± 22.8 | 4.96 ± 1.65 | Inactive | > 10 | Non-toxic | Inactive | – | – | MTT MDA-MB-231 plateau ([1]; Table S2): 100; IC50 (HCC1395 cells; human): > 100 µM
Clc1ccc(CCNc2ncnc3sccc23)cc1 [Compound 5m, N-(4-chlorophenethyl)thieno[2,3-d]pyrimidin-4-amine] | > 50 | – | – | > 50 | exclusively synergistic effects | 13.1 | > 50 | 3.7 | 8.46 | 6.72 | 82 ± 21.1 | 1.79 ± 1.45 | – | > 10 | Non-toxic | Inactive | > 10 | – | –
COc1ccccc1C(C)Nc1ncnc2sccc12 (stereo not drawn) [Compound 5a, N-(1-(2-methoxyphenyl)ethyl)thieno[2,3-d]pyrimidin-4-amine] | > 10 | Inactive | – | > 50 | exclusively synergistic effects | > 10 | > 10 | 0.12 | 0.1 | 4.08 | 46.1 ± 3.44 | 0.77 ± 0.44 | Inactive | – | Non-toxic | Inactive | – | > 50 | –
COc1cc(CNc2ncnc3sccc23)ccc1F [Compound 4p, N-(4-fluoro-3-methoxybenzyl)thieno[2,3-d]pyrimidin-4-amine] | > 50 | – | 41.8 | 4.04 | exclusively synergistic effects | > 50 | > 50 | 13.6 | > 50 | > 50 | 71.4 ± 11.1 | 2.59 ± 1.08 | – | – | – | – | > 10 | > 10 | GSK HCC1395 Comments ([4]; Table S2): Toxic
c1ccc(CCCNc2ncnc3sccc23)cc1 [Compound 5h, N-(3-phenylpropyl)thieno[2,3-d]pyrimidin-4-amine] | > 50 | – | – | > 50 | – | 37.1 | > 50 | – | > 50 | 36.8 | – | > 50 | – | > 10 | Non-toxic | – | > 10 | > 10 | selectivity over the control cells (difference in IC50, MCF10a vs HCC1395) ([2]; MTT IC50 ratio MCF10a / HCC1395): less than 3 fold; IC50 (HCC1395 TNBC cell line; MTT, Figure 3B heatmap and text, read-out: IC50, μM (HCC1395)): > 50 µM; IC50 (BT-20 TNBC cell line; Figure 3B heatmap, no activity up to maximal tested concentration, read-out: IC50, μM (BT20)): > 50 µM; TopFlash activity in words ([4]; HCC1395, CHIR99021): inactive
c1ccc(CCNc2ncnc3sccc23)cc1 [Compound 5g, N-phenethylthieno[2,3-d]pyrimidin-4-amine] | > 50 | – | – | > 50 | – | > 50 | > 50 | 4.59 | > 50 | > 50 | 89 | 2.64 ± 1.22 | – | > 10 | Non-toxic | – | > 10 | – | –
COc1cccc(CNc2ncnc3ccccc23)c1 [Compound 9b, N-(3-methoxybenzyl)quinazolin-4-amine] | > 50 | Inactive | – | > 50 | – | > 50 | 40.1 | 1.05 | 2.62 | 1.1 | 82.6 ± 13.5 | – | Inactive | > 10 | Non-toxic | – | – | – | –
